For 28 compounds, IC50 results are on record in patent US20230399341A1, “7-PHENYL SUBSTITUTED 2-AMINOQUINAZOLINE INHIBITORS OF HPK1” (MERCK SHARP & DOHME LLC, priority 2020, published 2023).

This test deals with T1, Human HPK1, catalytic domain (Homo sapiens, UniProt Q92918).
T1 sequence (Q92918 1-346): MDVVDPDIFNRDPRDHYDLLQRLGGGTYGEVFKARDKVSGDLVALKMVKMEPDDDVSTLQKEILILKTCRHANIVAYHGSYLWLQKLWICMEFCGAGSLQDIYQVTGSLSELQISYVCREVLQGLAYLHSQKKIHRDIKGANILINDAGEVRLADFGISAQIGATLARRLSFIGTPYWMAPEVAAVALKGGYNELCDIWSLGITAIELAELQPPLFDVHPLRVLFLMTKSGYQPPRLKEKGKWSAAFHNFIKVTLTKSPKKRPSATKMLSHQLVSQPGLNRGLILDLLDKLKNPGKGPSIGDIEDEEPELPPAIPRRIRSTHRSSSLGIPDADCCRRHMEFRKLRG
The experiment in a line: HPK1-SLP76 TR-FRET Assay. It counts as biochemical. To be noted: 75 pM HPK1, ATP 10 uM, SLP76 10 nM, 30 min pre-incubation, 60 min reaction. Background: TR-FRET usually uses a lanthanide donor and a delayed reading to cut background.

The structures appear in SMILES notation.

Take `COc1cc2c(cc1Nc1ncc3ccc(-c4cccc(CO)c4)cc3n1)CNCC2` [Compound 1-60, (3-{2-[(6-methoxy-1,2,3,4-tetrahydroisoquinolin-7-yl)amino]quinazolin-7-yl}phenyl)methanol]: it took 20.5 nM to reach half-maximal inhibition (IC50).

`CCNS(=O)(=O)c1cccc(-c2ccc3cnc(Nc4cc5c(cc4OC)CCNC5)nc3c2)c1` [Compound 1-84, N-ethyl-3-{2-[(6-methoxy-1,2,3,4-tetrahydroisoquinolin-7-yl)amino]quinazolin-7-yl}benzene-1-sulfonamide] registered an IC50 of 53.7 nM. In turn, `Cc1c(-c2cc3nc(Nc4ccc(CS(=O)(=O)C(C)C)cc4)ncc3cc2F)cnc2c1NCCO2` [Compound 1-128, 6-fluoro-N-(4-((isopropylsulfonyl)methyl)phenyl)-7-(8-methyl-2,3-dihydro-1H-pyrido[2,3-b][1,4]oxazin-7-yl)quinazolin-2-amine] had a half-maximal inhibitory concentration (IC50) of 0.0828 nM. In the case of `Cc1c(-c2cc3nc(Nc4ccccc4OC(F)(F)F)ncc3c(N)c2F)cnc2c1NCCO2` [Compound 2-8, 6-fluoro-7-(8-methyl-2,3-dihydro-1H-pyrido[2,3-b][1,4]oxazin-7-yl)-N~2~- [2-(trifluoromethoxy)phenyl] quinazoline-2,5-diamine], half-maximal inhibition (IC50) required 116 nM. The compound `COc1cc2c(cc1Nc1ncc3cc(F)c(-c4cnc5c(c4C)NCCO5)cc3n1)CN(C)CC2` [Compound 1-95, 6-fluoro-N-(6-methoxy-2-methyl-1,2,3,4-tetrahydroisoquinolin-7-yl)-7-(8-methyl-2,3-dihydro-1H-pyrido[2,3-b][1,4]oxazin-7-yl)quinazolin-2-amine] came in with an IC50 of 2.32 nM.

For `COc1cc2c(cc1Nc1ncc3ccc(NCC(=O)N4CCCC4)cc3n1)CN(C)CC2` [Compound 3-65, 2-({2-[(6-methoxy-2-methyl-1,2,3,4-tetrahydroisoquinolin-7-yl)amino]quinazolin-7-yl}-amino)-1-(pyrrolidin-1-yl)ethan-1-one], half-maximal inhibition (IC50) was put at 136 nM. With `CCn1cc(-c2ccc3cnc(Nc4cc5c(cc4OC)CCN(C)C5)nc3c2)cn1` [Compound 1-20, 7-(1-ethyl-1H-pyrazol-4-yl)-N-(6-methoxy-2-methyl-1,2,3,4-tetrahydroisoquinolin-7-yl)quinazolin-2-amine], inhibition was half-maximal at 4.61 nM (IC50).

`CC(=O)NC1CCc2cc(Nc3ncc4c(N)c(F)c(-c5cnc6c(c5C)NCCO6)cc4n3)ccc21` (single isomer, unassigned) [Compound 2-10, (S or R)—N-(5-((5-amino-6-fluoro-7-(8-methyl-2,3-dihydro-1H-pyrido[2,3-b][1,4]oxazin-7-yl)quinazolin-2-yl)amino)-2,3-dihydro-1H-inden-1-yl)acetamide] had an IC50 of 0.125 nM.

As to `COc1cc2c(cc1Nc1ncc3ccc(Oc4ccc(C(=O)N5CCN(C)CC5)cc4)cc3n1)CN(C)CC2` [Compound 4-6, [4-({2-[(6-methoxy-2-methyl-1,2,3,4-tetrahydro-isoquinolin-7-yl)amino]-quinazolin-7-yl}oxy)phen-yl](4-methylpiperazin-1-yl)methanone], the IC50 is 583 nM. The compound `Cc1c(-c2cc3nc(Nc4ccc(NS(C)(=O)=O)cc4)ncc3c(N)c2F)cnc2c1NCCO2` [Compound 2-16, N-(4-{[5-amino-6-fluoro-7-(8-methyl-2,3-dihydro-1H-pyrido[2,3-b][1,4]oxazin-7-yl)quinazolin-2-yl]amino}phenyl)methane-sulfonamide] showed an IC50 of 0.0932 nM. `COc1cc2c(cc1Nc1ncc3ccc(-c4ccc5c(c4)CCO5)cc3n1)CNCC2` [Compound 1-72, 7-(2,3-dihydro-1-benzofuran-5-yl)-N-(6-methoxy-1,2,3,4-tetrahydroisoquinolin-7-yl)quinazolin-2-amine] gave an IC50 of 53.4 nM. In turn, `COc1cc2c(cc1Nc1ncc3ccc(-c4cnccc4C)cc3n1)CN(C)CC2` [Compound 1-2, N-(6-methoxy-2-methyl-1,2,3,4-tetrahydroisoquinolin-7-yl)-7-(4-methylpyridin-3-yl)quinazolin-2-amine] yielded a concentration for half-maximal inhibition (IC50) of 26.2 nM. The figure for `COc1cc2c(cc1Nc1ncc3ccc(NC4CCN(C)C4=O)cc3n1)CN(C)CC2` (racemic) [Compound 3-56, (S and R)-3-({2-[(6-methoxy-2-methyl-1,2,3,4-tetrahydroiso-quinolin-7-yl)amino]quinazolin-7-yl}amino)-1-methylpyrrolidin-2-one] is 97.6 nM; for `COc1cc2c(cc1Nc1ncc3ccc(Oc4cn[nH]c4)cc3n1)CN(C)CC2` [Compound 4-5, N-(6-methoxy-2-methyl-1,2,3,4-tetrahydroisoquin-olin-7-yl)-7-[(1H-pyrazol-4-yl)oxy]quinazolin-2-amine] it is 258 nM; for `Cc1c(-c2cc3nc(Nc4ccc5c(c4)CN(C)C5=O)ncc3c(N)c2F)cnc2c1NCCO2` [Compound 2-78, 5-{[5-amino-6-fluoro-7-(8-methyl-2,3-dihydro-1H-pyrido[2,3-b][1,4]oxazin-7-yl)quinazolin-2-yl]amino}-2-methyl-2,3-dihydro-1H-isoindol-1-one] it is 0.0198 nM. Regarding `COc1cc2c(cc1Nc1ncc3ccc(-c4cccc(CNC(C)=O)c4)cc3n1)CN(C)CC2` [Compound 1-98, N-[(3-{2-[(6-methoxy-2-methyl-1,2,3,4-tetrahydroisoquinolin-7-yl)amino]quinazolin-7-yl}phenyl)methyl]acetamide], the half-inhibitory concentration (IC50) is 203 nM. The figure for `COc1cc2c(cc1Nc1ncc3ccc(N[C@H]4CC[C@@H](O)CC4)cc3n1)CN(C)CC2` [Compound 3-46, (1s,4s)-4-((2-((6-methoxy-2-methyl-1,2,3,4-tetrahydroiso-quinolin-7-yl)amino)quinazolin-7-yl)amino)cyclohexan-1-ol] is 118 nM; for `COc1cc2c(cc1Nc1ncc3ccc(-c4cncc(C(C)(C)O)c4)cc3n1)CN(C)CC2` [Compound 1-14, 2-(5-{2-[(6-methoxy-2-methyl-1,2,3,4-tetrahydroisoquinolin-7-yl)amino]quinazolin-7-yl}pyridin-3-yl)propan-2-ol] it is 55.3 nM; for `COc1cc2c(cc1Nc1ncc3ccc(-c4cccc(N)c4)cc3n1)CNCC2` [Compound 1-58, 7-(3-aminophenyl)-N-(6-methoxy-1,2,3,4-tetrahydroisoquinolin-7-yl)quinazolin-2-amine] it is 76.2 nM. Turning to `Cc1c(-c2cc3nc(Nc4ccc(C(C)S(C)(=O)=O)cc4)ncc3c(N)c2F)cnc2c1NCCO2` (single isomer, unassigned) [Compound 2-62, (R or S)-6-fluoro-7-(8-methyl-2,3-dihydro-1H-pyrido[2,3-b][1,4]oxazin-7-yl)-N˜2˜-{4-[1-(methylsulfonyl)ethyl]phenyl}quinazoline-2,5-diamine], the concentration for half-maximal inhibition (IC50) worked out at 0.0612 nM. Take `Cc1c(-c2c(F)c(N)c3cnc(Nc4ccc5c(c4)CN(C)CC54CC4)nc3c2Br)cnc2c1NCCO2` [Compound 2-111, (+ or −)-8-bromo-6-fluoro-7-(8-methyl-2,3-dihydro-1H-pyrido[2,3-b][1,4]oxazin-7-yl)-N~2~- (2′-methyl-2′,3′-dihydro-1′H-spiro[cyclopropane-1,4′-isoquinolin]-7′-yl)quinazoline-2,5-diamine]: the IC50 was found to be 0.0199 nM. For the compound `Cc1c(-c2cc3nc(Nc4cccc(S(C)(=O)=O)c4)ncc3c(N)c2F)cnc2c1NCCO2` [Compound 2-14, 6-fluoro-7-(8-methyl-2,3-dihydro-1H-pyrido[2,3-b][1,4]oxazin-7-yl)-N~2~- [3-(methylsulfonyl)phenyl] quinazoline-2,5-diamine], the 50% inhibitory concentration (IC50) turned out to be 0.082 nM. Compound `COc1cc2c(cc1Nc1ncc3ccc(NC4CCCOC4)cc3n1)CN(C)CC2` (racemic) [Compound 3-69, (S and R)-N-2~-(6-methoxy-2-methyl-1,2,3,4-tetrahydroiso-quinolin-7-yl)-N~7~-(oxan-3-yl)quinazoline-2,7-diamine] returned a half-maximal inhibitory concentration (IC50) of 470 nM. For `Cc1c(-c2cc3nc(Nc4cnc5c(c4)CN(C)CC5)ncc3c(N)c2F)cnc2c1NCCO2` [Compound 2-183, 6-fluoro-7-(8-methyl-2,3-dihydro-1H-pyrido[2,3-b][1,4]oxazin-7-yl)-N~2~- (6-methyl-5,6,7,8-tetrahydro-1,6-naphthyridin-3-yl)quinazoline-2,5-diamine], the 50% inhibitory concentration (IC50) is 0.0379 nM. Turning to `Cc1c(-c2c(F)c(N)c3cnc(Nc4ccc5c(c4)CN(C(C)C)CC5)nc3c2Cl)cnc2c1NCCO2` (single isomer, unassigned) [Compound 2-113, 8-chloro-6-fluoro-N2-(2-isopropyl-1,2,3,4-tetrahydroisoquinolin-7-yl)-7-(8-methyl-2,3-dihydro-1H-pyrido[2,3-b][1,4]oxazin-7-yl)quinazoline-2,5-diamine], half-maximal inhibition (IC50) was put at 0.0389 nM. On to `COc1cc2c(cc1Nc1ncc3ccc(-c4cncc(N5CCOCC5)c4)cc3n1)CNCC2` [Compound 1-42, N-(6-methoxy-1,2,3,4-tetrahydroisoquinolin-7-yl)-7-[5-(morpholin-4-yl)pyridin-3-yl]quinazolin-2-amine], for which the IC50 is 38.5 nM. The same measure for `COc1cc2c(cc1Nc1ncc3c(N)cc(-c4cnc5c(c4C)NCCO5)cc3n1)CN(C)CC2` [Compound 2-40, N~2~-(6-methoxy-2-methyl-1,2,3,4-tetrahydroisoquinolin-7-yl)-7-(8-methyl-2,3-dihydro-1H-pyrido[2,3-b][1,4]oxazin-7-yl)quinazoline-2,5-diamine]: 0.633 nM. Compound `COc1cc2c(cc1Nc1ncc3ccc(-c4cnccc4Cl)cc3n1)CNCC2` [Compound 1-38, 7-(4-chloropyridin-3-yl)-N-(6-methoxy-1,2,3,4-tetrahydroisoquinolin-7-yl)quinazolin-2-amine] registered a 50% inhibitory concentration (IC50) of 17.9 nM.

The IC50 is the point on the concentration scale where inhibition reaches its midpoint. Higher therefore signals weaker potency in that assay.
